# Test results: patent US20230114123A1, “METHOD OF STIMULATING ASYMMETRIC DIVISION OF SATELLITE STEM CELLS” (Ottawa Hospital Research Institute, priority 2017, published 2023)
# B1: Wnt7a ligand: known activator of symmetric satellite cell divisions (protein, UniProt O00755 32-349, looked up)
# Protein Wnt-7a: LGASIICNKIPGLAPRQRAICQSRPDAIIVIGEGSQMGLDECQFQFRNGRWNCSALGERTVFGKELKVGSREAAFTYAIIAAGVAHAITAACTQGNLSDCGCDKEKQGQYHRDEGWKWGGCSADIRYGIGFAKVFVDAREIKQNARTLMNLHNNEAGRKILEENMKLECKCHGVSGSCTTKTCWTTLPQFRELGYVLKDKYNEAVHVEPVRASRNKRPTFLKIKKPLSYRKPMDTDLVYIEKSPNYCEEDPVTGSVGTQGRACNKTAPQASGCDLMCCGRGYNTHQYARVWQCNCKFHWCCYVKCNTCSERTEMYTCK
# What was measured:
# satellite stem cells = assay: EDL myofiber culture, satellite stem cell divisions (Myf5-Cre/R26R-eYFP, wild type); assay type: cell-based, mouse; settings: 42 h culture, Lapatinib 1 μM vs DMSO vehicle
# Procedure: EGFR Signaling Regulates Asymmetric Satellite Stem Cell Divisions. To assess the role of EGFR in asymmetric division, the inventors cultured satellite cells in myofibers isolated from Extensor digitorum longus (EDL) muscles from Myf5-Cre/R26R-eYFP mice and performed both loss-of-function and gain-of-function experiments. Isolated myofibers were first cultured for 42 h with and without treatment with the Lapatinib, a specific inhibitor of EGFR signaling.
# EDL fiber Culture and siRNA Transfection. Myofiber culture was performed as described in Dumont, N. A., et al. “Dystrophin expression in muscle stem cells regulates their polarity and asymmetric division.” Nat. Med. (2015) 21:1455-63, which is incorporated herein by reference. Briefly, EDL were carefully dissected and incubated in DMEM with 2% L-glutamine, 4.5% glucose, and 110 mg/mL sodium pyruvate (Gibco) containing 0.2% collagenase I (Sigma) for 45 min. Myofibers were isolated using gentle trituration with a glass pipet. Myofibers were cultured for 36, 42, or 72 h in DMEM containing 20% FBS (Wisent), 1% chick embryo extract (MP Biomedicals), and 2.5 ng/ml bFGF (Cedarlane). For pharmacological inhibition, Lapatinib ditosylate (1 mM in DMSO; Santa
# Cruz Biotechnology), PTP1b inhibitor CAS 765317-72-4 (10 mM in DMSO; Santa Cruz Biotechnologies) was added to the culture medium for a final concentration of 1 μM or 10 μM, respectively; equal dilution of DMSO was used as vehicle control.
# Transfection of satellite cells on myofibers was performed using lipofectamine RNAimax (Life Technologies) and validated Smartpool siRNAs for EGFR, Aurka, or scramble (SCR) (Dharmacon). Two transfections were performed at 4 h and 16 h after isolation of the myofibers as described in Le Grand, et al. (2009) Wnt7a activates the planar cell polarity pathway to drive the symmetric expansion of satellite stem cells. Cell Stem Cell 4, pp 535-547, which is incorporated herein by reference. Knockdown efficiencies of the siRNA were validated in myoblasts by western blot and qRT-PCR.
# EGFR signaling = assay type: cell-based
# satellite cell divisions = assay: FDB myofiber screening method validation (YFP(-) divisions); assay type: cell-based, mouse; settings: control 62% (Wnt7a experiment), control 45% (EGF / PTP1b experiment)
# Description: EGFR pathway activators may be identified in a method of screening potential activators. The method includes visualizing isolated, cultured, and stained Flexor Digitorum Brevis (FDB) myofibers from Myf5-Cre/ROSA26-YFP mice in a plurality of Z-stack planes to create a projection image. Muscle satellite cells are identified in the projection image based on Pax7 expression. Of the identified muscle satellite cells: (i) satellite stem cells are identified based on the absence of YFP expression, and (ii) committed satellite progenitor cells are identified based on yellow fluorescence protein (YFP) expression. A potential EGFR pathway activator is administered to the FDB myofibers. The number of symmetric divisions of satellite myogenic cells, identified by the production of two YFP(+) satellite cells, are counted; the number of symmetric satellite stem cell divisions, identified by the production of two YFP(−) satellite cells, are counted; and the number of asymmetric satellite cell divisions, identified by the production of one YFP(+) and one YFP(−) satellite cell, are counted. The potential EGFR pathway activator is identified as an EGFR pathway activator when the percent of YFP(−) divisions that are asymmetric divisions is greater than the corresponding percent in a control sample. The expression “YFP(−) divisions” refers to all cell divisions where one of the daughter cells is YFP(−).
# Identification of EGFR pathway activators. Flexor Digitorum brevis (FDB) fibers were isolated from Myf5-Cre/Rosa-YFP mice and digested in 0.25% Collagenase Type I (Sigma) in DMEM (Dulbecco's modified Eagle's medium; high glucose, L-glutamine with 110 mg/ml sodium pyruvate) for 2.5-3 h. Myofibers were dissociated using gentle trituration with a glass pipette.
# Myofibers are cultured at 37° C., 5% CO2 for 42 h in myofiber culture media (DMEM supplemented with 20% FBS(Wisent), 1% Chicken Embryo extract (MP Biomediacals), 1% Penicillin/Streptomycin (Cederlane) and 2.5 ng/ml basic Fibroblast Growth Factor (Cedarlane).
# Myofibers are first fixed in 2% Paraformaldehyde (PFA) for 5 mins. Myofibers are blocked for 1-2 h in 1% Bovine Serum Albumin, 0.5% TritonX-100, 5% HS and 0.01% Sodium Azide. Primary antibodies are applied in blocking solution for 2 h at room temperature or at 4° C. overnight. Myofibers are washed with PBS and stained with appropriate fluorescently labeled secondary antibodies (Alexa Fluor 488, 546) for 1 hat room temperature. Following washing with PBS, fiber nuclei are stained with DAPI for 5 min. The following antibodies are used: mouse anti-Pax7 (Developmental Studies Hybridoma Bank (DSHB)), chicken anti-GFP (cat. no. ab13970, Abcam).
# Satellite cells are focused based on Channel 3 (DAPI) staining. Autofocus is performed by sampling seven (7) z-stacks taken at […] intervals for an extended depth of field of 85.3 μm.
# Z-stack images were consolidated to create a projection image with all satellite cells in focus. Image acquisition of a projection image for analysis was created from seven (7) Z-stack images taken at 6.5 μm intervals, for an extended depth of field of 45.5 μm at 200 (Objective 20×) magnification. The projection direction was centered, where the median stacks fall within the center of each myofiber. […]
# Potential satellite cells were first identified based on Channel 1 (Pax7) signal, and separated from other satellite cells based on intensity of fluorescence between cells. […]
Molecule,decrease in the rate of asymmetric divisions (satellite stem cells; FIG. 1A) [%],increase in the number of satellite stem cells (satellite stem cells; FIG. 1B) [%],EGFR signaling at the concentration used in the screen (EGFR signaling),percentage of YFP(-) divisions that were symmetric divisions (satellite cell divisions) [%]
"CS(=O)(=O)CCNCc1ccc(-c2ccc3ncnc(Nc4ccc(OCc5cccc(F)c5)c(Cl)c4)c3c2)o1 [Lapatinib, reference compound]",83,71,completely abolishes EGFR signaling,
B1,,,,78
